In ChEMBL document CHEMBL4190339, “Design, synthesis and preliminary biological evaluation of new [1,2,3]triazolo[4,5-d]pyrimidine/thiourea hybrids as antiproliferative agents” (Eur J Med Chem, 2017):
Each block holds one compound with its values, some of them ahead of it. Activity calls are given as the source filed them. The rule behind the calls is not given here.

Experiments:
MKN-45 = assay: Antiproliferative activity against human MKN45 cells after 48 hrs by MTT assay; format: functional, cell-based; details: MKN-45, 48 h
NCI-H1650 [1] = assay: Antiproliferative activity against human NCI-H1650 cells after 48 hrs by MTT assay; format: functional, cell-based; details: NCI-H1650, 48 h
ECa-109 cell line = assay: Antiproliferative activity against human EC109 cells after 48 hrs by MTT assay; format: functional, cell-based; details: ECa-109, 48 h
A549 = assay: Antiproliferative activity against human A549 cells after 48 hrs by MTT assay; format: functional, cell-based; details: A549, 48 h
GES1 = assay: Antiproliferative activity against human GES-1 cells after 48 hrs by MTT assay; format: cell-based; details: GES1, 48 h
MGC-803 = assay: Antiproliferative activity against human MGC803 cells after 48 hrs by MTT assay; format: functional, cell-based; details: MGC-803, 48 h
NCI-H1650 [2] = assay: Induction of apoptosis in human NCI-H1650 cells assessed as viable cells at 4 uM after 24 hrs by Annexin-V-FITC/propidium iodide staining based flow cytometry (reference value: 83.6%); format: functional; details: NCI-H1650, 24 h, read-out: Activity
NCI-H1650 [3] = assay: Induction of apoptosis in human NCI-H1650 cells assessed as increase in early apoptotic cells after 24 hrs by Annexin-V-FITC/propidium iodide staining based flow cytometry; format: functional, cell-based
NCI-H1650 [4] = assay: Induction of apoptosis in human NCI-H1650 cells assessed as early apoptotic cells at 2 uM after 24 hrs by Annexin-V-FITC/propidium iodide staining based flow cytometry (reference value: 5.58%); format: functional
NCI-H1650 [5] = assay: Cell cycle arrest in human NCI-H1650 cells assessed as accumulation at G1 phase at 4 uM after 24 hrs by propidium iodide staining-based flow cytometry (reference value: 55.7%); format: functional
NCI-H1650 [6] = assay: Cell cycle arrest in human NCI-H1650 cells assessed as accumulation at S phase at 4 uM after 24 hrs by propidium iodide staining-based flow cytometry (reference value: 36.2%); format: functional
NCI-H1650 [7] = assay: Cell cycle arrest in human NCI-H1650 cells assessed as accumulation at G2/M phase at 4 uM after 24 hrs by propidium iodide staining-based flow cytometry (reference value: 12.4%); format: functional
NCI-H1650 [8] = assay: Cell cycle arrest in human NCI-H1650 cells assessed as accumulation at S phase at 2 uM after 24 hrs by propidium iodide staining-based flow cytometry (reference value: 36.2%); format: functional
NCI-H1650 [9] = assay: Induction of apoptosis in human NCI-H1650 cells assessed as necrotic cells at 2 uM after 24 hrs by Annexin-V-FITC/propidium iodide staining based flow cytometry (reference value: 3.22%); format: functional
NCI-H1650 [10] = assay: Cell cycle arrest in human NCI-H1650 cells assessed as accumulation at G2/M phase at 8 uM after 24 hrs by propidium iodide staining-based flow cytometry (reference value: 12.4%); format: functional
NCI-H1650 [11] = assay: Induction of apoptosis in human NCI-H1650 cells assessed as late apoptotic cells at 2 uM after 24 hrs by Annexin-V-FITC/propidium iodide staining based flow cytometry (reference value: 7.64%); format: functional
NCI-H1650 [12] = assay: Anticlonogenic activity against human NCI-H1650 cells assessed as inhibition of colony formation after 9 days by crystal violet staining-based assay; format: functional, cell-based
NCI-H1650 [13] = assay: Cell cycle arrest in human NCI-H1650 cells assessed as accumulation at G2/M phase at 2 uM after 24 hrs by propidium iodide staining-based flow cytometry (reference value: 12.4%); format: functional
NCI-H1650 [14] = assay: Induction of apoptosis in human NCI-H1650 cells assessed as early apoptotic cells at 4 uM after 24 hrs by Annexin-V-FITC/propidium iodide staining based flow cytometry (reference value: 5.58%); format: functional
NCI-H1650 [15] = assay: Anticlonogenic activity against human NCI-H1650 cells assessed as inhibition of colony formation at 10 uM after 9 days by crystal violet staining-based assay relative to control; format: functional; details: NCI-H1650, 216 h
NCI-H1650 [16] = assay: Induction of apoptosis in human NCI-H1650 cells assessed as increase in Bax expression measured after 24 hrs by Western blot analysis; format: functional, cell-based
NCI-H1650 [17] = assay: Cell cycle arrest in human NCI-H1650 cells assessed as accumulation at G1 phase at 8 uM after 24 hrs by propidium iodide staining-based flow cytometry (reference value: 55.7%); format: functional
NCI-H1650 [18] = assay: Induction of apoptosis in human NCI-H1650 cells assessed as viable cells at 2 uM after 24 hrs by Annexin-V-FITC/propidium iodide staining based flow cytometry (reference value: 83.6%); format: functional; details: NCI-H1650, 24 h, read-out: Activity
[19] = Selectivity index, ratio of IC50 for human GES-1 cells to IC50 for human NCI-H1650 cells; format: toxicity; details: GES-1 cells versus NCI-H1650 cells, read-out: Ratio IC50
NCI-H1650 [20] = assay: Induction of apoptosis in human NCI-H1650 cells assessed as increase in cleaved caspase-3 level up to 8 uM after 24 hrs by Western blot analysis; format: functional, cell-based
NCI-H1650 [21] = assay: Induction of apoptosis in human NCI-H1650 cells assessed as necrotic cells at 4 uM after 24 hrs by Annexin-V-FITC/propidium iodide staining based flow cytometry (reference value: 3.22%); format: functional
NCI-H1650 [22] = assay: Induction of apoptosis in human NCI-H1650 cells assessed as increase in cleaved caspase-9 level up to 8 uM after 24 hrs by Western blot analysis; format: functional, cell-based
NCI-H1650 [23] = assay: Induction of apoptosis in human NCI-H1650 cells assessed as reduction in Bcl-2 expression up to 8 uM after 24 hrs by Western blot analysis; format: functional, cell-based
NCI-H1650 [24] = assay: Cell cycle arrest in human NCI-H1650 cells assessed as accumulation at G1 phase at 2 uM after 24 hrs by propidium iodide staining-based flow cytometry (reference value: 55.7%); format: functional
NCI-H1650 [25] = assay: Induction of apoptosis in human NCI-H1650 cells assessed as late apoptotic cells at 4 uM after 24 hrs by Annexin-V-FITC/propidium iodide staining based flow cytometry (reference value: 7.64%); format: functional
NCI-H1650 [26] = assay: Cell cycle arrest in human NCI-H1650 cells assessed as accumulation at S phase at 8 uM after 24 hrs by propidium iodide staining-based flow cytometry (reference value: 36.2%); format: functional
NCI-H1650 [27] = assay: Cell cycle arrest in human NCI-H1650 cells assessed as accumulation at G2/M phase after 24 hrs by propidium iodide staining-based flow cytometry; format: functional

SMILES: CCCSc1nc(NCCNC(=S)Nc2cccc(C(F)(F)F)c2)c2nnn(CCc3ccccc3)c2n1
- IC50 (MKN-45): 35.6 µM
- IC50 (NCI-H1650 [1]): 24.2 µM
- IC50 (ECa-109 cell line): 17.8 µM
- IC50 (A549): 17.2 µM
- IC50 (GES1): 23.2 µM
- IC50 (MGC-803): 33.9 µM

SMILES: CCCSc1nc(NCCNC(=S)Nc2cccc3ccccc23)c2nnn(CCc3ccccc3)c2n1
- IC50 (MKN-45): 9.73 µM
- IC50 (NCI-H1650 [1]): 6.51 µM
- IC50 (ECa-109 cell line): > 64 µM
- IC50 (A549): 40.9 µM
- IC50 (GES1): > 64 µM
- IC50 (MGC-803): > 64 µM

SMILES: CCCSc1nc(NCCNC(=S)Nc2cccnc2)c2nnn(Cc3ccccc3)c2n1
- IC50 (MKN-45): 15.1 µM
- IC50 (NCI-H1650 [1]): 9.56 µM
- IC50 (ECa-109 cell line): 10.8 µM
- IC50 (A549): 12 µM
- IC50 (GES1): 21.9 µM
- IC50 (MGC-803): 24 µM

SMILES: CCCSc1nc(NCCNC(=S)Nc2cccnc2)c2nnn(CC(C)C)c2n1
- IC50 (MKN-45): 19.2 µM
- IC50 (NCI-H1650 [1]): 15.3 µM
- IC50 (ECa-109 cell line): > 64 µM
- IC50 (A549): 10.6 µM
- IC50 (GES1): 48.2 µM
- IC50 (MGC-803): 25.2 µM

SMILES: CCCSc1nc(NCCNC(=S)Nc2ccccn2)c2nnn(CCc3ccccc3)c2n1
- IC50 (MKN-45): 8.09 µM
- IC50 (NCI-H1650 [1]): 7.62 µM
- IC50 (ECa-109 cell line): 5.41 µM
- IC50 (A549): 5.91 µM
- IC50 (GES1): 23.1 µM
- IC50 (MGC-803): 11.6 µM

Second part, led by results:

- IC50 (MKN-45): 25 µM
- IC50 (NCI-H1650 [1]): 45.9 µM
- IC50 (A549): > 64 µM
- IC50 (MGC-803): > 64 µM
SMILES: CCCSc1nc(NCCNC(=S)Nc2cccnc2)c2nnn(CCO)c2n1
- IC50 (ECa-109 cell line): 18.2 µM
- IC50 (GES1): > 64 µM

- IC50 (MKN-45): > 64 µM
- IC50 (NCI-H1650 [1]): 18.2 µM
- IC50 (A549): > 64 µM
- IC50 (MGC-803): > 64 µM
SMILES: CCCSc1nc(NCCNC(=S)Nc2ccccc2Cl)c2nnn(CCc3ccccc3)c2n1
- IC50 (ECa-109 cell line): > 64 µM
- IC50 (GES1): > 64 µM

- IC50 (MKN-45): 50.6 µM
- IC50 (NCI-H1650 [1]): 58.8 µM
- IC50 (A549): 42.4 µM
- IC50 (MGC-803): 35.2 µM
SMILES: CCCSc1nc(NCCNC(=S)Nc2ccc(C)cc2)c2nnn(CCc3ccccc3)c2n1
- IC50 (ECa-109 cell line): 28.4 µM
- IC50 (GES1): 43 µM

- IC50 (MKN-45): 3.22 µM
- IC50 (NCI-H1650 [1]): 1.91 µM
- IC50 (A549): 3.28 µM
- IC50 (MGC-803): 9.21 µM
SMILES: CCCSc1nc(NCCNC(=S)Nc2cccnc2)c2nnn(CCc3c[nH]c4ccccc34)c2n1
- viability at 4 µM (NCI-H1650 [2]): 46.8%
- Activity (NCI-H1650 [3]): Dose-dependent effect
- Activity (NCI-H1650 [4]): 35.5%
- Activity (NCI-H1650 [5]): 27.2%
- Activity (NCI-H1650 [6]): 21.9%
- Activity (NCI-H1650 [7]): 34.7%
- Activity (NCI-H1650 [8]): 35.1%
- Activity (NCI-H1650 [9]): 1.14%
- Activity (NCI-H1650 [10]): 45.6%
- IC50 (ECa-109 cell line): 8.12 µM
- Activity (NCI-H1650 [11]): 12.3%
- inhibition (NCI-H1650 [12]): Dose-dependent effect
- Activity (NCI-H1650 [13]): 23.2%
- Activity (NCI-H1650 [14]): 36.7%
- inhibition at 10 µM (NCI-H1650 [15]): ≤ 68%
- Activity (NCI-H1650 [16]): Dose-dependent effect
- Activity (NCI-H1650 [17]): 20.8%
- viability at 2 µM (NCI-H1650 [18]): 51.1%
- IC50 (GES1): 27.4 µM
- selectivity ratio [19]: 14.4
- Activity (NCI-H1650 [20]): Active
- Activity (NCI-H1650 [21]): 1.38%
- Activity (NCI-H1650 [22]): Active
- Activity (NCI-H1650 [23]): Active
- Activity (NCI-H1650 [24]): 30.6%
- Activity (NCI-H1650 [25]): 15.1%
- Activity (NCI-H1650 [26]): 38.4%
- Activity (NCI-H1650 [27]): Dose-dependent effect
